Assay results published in publication PMC12691669, “Inhibitors of the 20S proteasome β5 subunit as potent and selective agents against Trichomonas vaginalis” (Antimicrobial Agents and Chemotherapy, 2025).
Entries after “also recorded” stand apart in the source; their conditions may differ.

Columns and labels:
[1] = tested on: T. vaginalis strain F1623; test: 24 h growth and survival assay (ATP luminescence, GI50); type: cell-based, Trichomonas vaginalis; settings: for SI (ratio of GI50 in HeLa cells over GI50 in T. vaginalis): T. vaginalis F1623 vs human HeLa cells
Method: The following T. vaginalis strains were used: F1623 ([50]), G3 (ATCC PRA-98), and LA1 ([25]). […] Drug susceptibility assays were performed as described previously ([23]) with several minor modifications. Briefly, 10 mM stocks of the test compounds in DMSO were serially diluted 1:3 using an Echo 650 Acoustic Liquid Handler (Beckman Coulter). Subsequently, trophozoites (5 × 10^3/well) in TYM modified media were added to the wells in 384-well plates, and cultures were incubated for 24 h at 37°C under anaerobic conditions (AnaeroPack-Anaero System; Remel). For testing in mammalian cells, the following cell lines were used: Human cervical cancer cells HeLa (ATCC CCL-2), non-transformed mouse fibroblast cell line 3T3-L1 (ATCC CL-173), normal monkey kidney epithelial cell line Vero (ATCC CCL-81), and human B lymphoma cells Raji (ATCC CCL-86). Test compounds were serially diluted (1:3) and added to mammalian cell cultures grown in 384-well plates, and cultures were incubated for 48 h at 37°C in 5% CO2, 95% air. Growth and viability of T. vaginalis and mammalian cells were determined with an ATP assay by adding the BacTiter-Glo Microbial Cell Viability Assay reagent (Promega) directly to the wells and measuring ATP-dependent luminescence in a microplate reader. […] Experiments were repeated at least three times, and the mean and SEM of the pGI50 values were calculated.

[2] = target: T. vaginalis Tv20S proteasome β1 subunit (Trichomonas vaginalis, UniProt A2E7Z2); test: In vitro proteasome assay, Ac-RYFD-amc substrate; type: biochemical; settings: recombinant Tv20S, mean ± SD of three experiments
Method: (§1) The T. vaginalis proteasome was expressed in recombinant form as previously described ([27]). Briefly, Spodoptera frugiperda cells were co-infected with three baculovirus vectors carrying the T. vaginalis genes for the 7 α-subunits, 7 β-subunits, and the Ump-1 chaperone, respectively. The resulting proteasome complex was purified from cell lysates via streptavidin column and size exclusion chromatography and stored at −80°C. Purified human c20S proteasome and recombinant human proteasome activator PA28α ([21]) were obtained from Bio-Techne and stored at −80°C. Dilutions of the test agents were transferred to 384-well plates (Greiner Bio-One) in triplicate wells using an Echo 650 Acoustic Liquid Handler (Beckman Coulter). Six replicate plates were prepared for each compound for testing with three T. vaginalis-optimized substrates and three human-optimized substrates. After dispensing, plates were sealed and stored at −20°C. The following fluorescent substrates and final substrate concentrations were used to assay subunit activities of the T. vaginalis proteasome (Tv20S) ([28]) or the human constitutive proteasome (c20S) ([19], [52]): Ac-RYFD-amc (Genscript) at 100 µM for Tv20S β1 subunit, Ac-FRSR-amc (Genscript) at 20 µM for Tv20S β2 subunit, Ac-GWYL-amc (Genscript) at 20 µM for Tv20S β5 subunit, z-LLE-amc (R&D Systems) at 80 µM for c20S β1 subunit, z-VLR-amc (AdipoGen Life Sciences) at 30 µM for c20S β2 subunit, and suc-LLVY-amc (R&D Systems) at 65 µM for c20S β5 subunit. Substrates and proteasomes were diluted in an assay buffer consisting of HEPES pH 7.5 and 1 mM DTT. For the human proteasome assays, 2 nM c20S was incubated at room temperature with 200 nM PA28α for 1 h to activate the complex prior to addition to the 384-well plates containing the substrate-inhibitor mixtures. […] Both proteasomes were added to the wells at a 1 nM final assay concentration. Fluorescence was measured over 4 h at 360 nm excitation and 460 nm emission on a Biotek Synergy HTX plate reader.

[3] = tested on: T. vaginalis Tv20S proteasome β2 subunit; test: In vitro proteasome assay, Ac-FRSR-amc substrate; type: biochemical, Trichomonas vaginalis; settings: recombinant Tv20S, mean ± SD of three experiments
Method: as §1

[4] = target: T. vaginalis Tv20S proteasome β5 subunit (Trichomonas vaginalis, UniProt A2DD57+A2F716); test: biochemical; type: biochemical; settings: recombinant Tv20S, mean ± SD of three experiments; for IC50: read-out: Tv20S proteasome inhibition of β5 subunit (IC50)
Method: as §1

[5] = target: T1, Human c20S proteasome β1 subunit (Homo sapiens, UniProt P28072+Q99436); test: In vitro proteasome assay, z-LLE-amc substrate; type: biochemical; settings: purified human c20S with PA28α, mean ± SD
T1 construct: purchased Bio-Techne
Method: as §1

[6] = target: T2, Human c20S proteasome β2 subunit (Homo sapiens, UniProt P49720+Q99436); test: In vitro proteasome assay, z-VLR-amc substrate; type: biochemical; settings: purified human c20S with PA28α, mean ± SD
T2 construct: purchased Bio-Techne
Method: as §1

[7] = target: T3, Human c20S proteasome β5 subunit (Homo sapiens, UniProt P20618+P28074); test: In vitro proteasome assay, suc-LLVY-amc substrate; type: biochemical; settings: purified human c20S with PA28α, mean ± SD; for IC50: read-out: Human c20S proteasome inhibition of β5 subunit (IC50)
T3 construct: purchased Bio-Techne
Method: as §1

[8] = tested on: β5 proteasome subunit in live T. vaginalis F1623 (compared to human HeLa cells); test: Fluorescence gel assay of proteasome subunit targeting in live cells; type: cell-based, Trichomonas vaginalis; settings: 3 h incubation, gel densitometry, T. vaginalis F1623 vs HeLa
Method: T. vaginalis F1623 and human HeLa cells were incubated for 3 h with proteasome inhibitors at a range of concentrations or with solvent as a control. Cells were lysed by three consecutive freeze/thaw cycles in a buffer of 50 mM HEPES, pH 7.5, 10 µM E64, 100 µM AEBSF, 10 µM RR11a, 1 µM Pepstatin, and 1 mM DTT. Protein concentrations were measured with the Pierce BCA assay (Thermo Scientific) and adjusted to 5 mg/mL. Samples were incubated with 2 µM Me4BodipyFL-Ahx3Leu3VS ([53]) at 2.5 mg/mL protein concentration for 24 h at 37°C. […] Band intensities were quantified using ImageJ (NIH). Each peak corresponding to a protein band was selected, and the area under the curve was determined after subtraction of the intensity in an adjacent area outside of the respective band. For closely spaced bands, the midpoint between the peaks of two bands was used to separate the areas. Band intensities were normalized to the respective controls, not incubated with inhibitors.

[9] = tested on: ubiquitin-conjugated proteins in T. vaginalis F1623; test: Immunoblot analysis of ubiquitin labeling; type: cell-based, Trichomonas vaginalis; settings: 3 h treatment, 30× GI50
Method: Protein concentrations were measured using the Pierce BCA assay (Thermo Scientific) and adjusted to 10 mg/mL. Proteins were fractionated on SDS-PAGE, transferred onto a nitrocellulose membrane (Bio-Rad), which was blocked with 5% non-fat dry milk in TBST buffer (20 mM Tris base, 150 mM NaCl, 0.05% Tween 20, pH adjusted to 7.6 with HCl) for 1 h and probed with primary anti-ubiquitin antibody (Proteintech, 10201-2-AP) at a 1:2,000 dilution, followed by incubation with anti-rabbit horseradish peroxidase (HRP)-conjugated IgG (Jackson laboratory) at a 1:5,000 dilution. HRP labeling was visualized by chemiluminescence (Immobilon, Millipore).

human cell line HeLa = test: 48 h cytotoxicity (growth and viability) assay in mammalian cells; type: cell-based
Method: The following T. vaginalis strains were used: F1623 ([50]), G3 (ATCC PRA-98), and LA1 ([25]). Parasites were grown at 37°C in TYM Diamond’s medium supplemented with 180 µM ferrous ammonium sulfate ([51]). Drug susceptibility assays were performed as described previously ([23]) with several minor modifications. Briefly, 10 mM stocks of the test compounds in DMSO were serially diluted 1:3 using an Echo 650 Acoustic Liquid Handler (Beckman Coulter). Subsequently, trophozoites (5 × 10^3/well) in TYM modified media were added to the wells in 384-well plates, and cultures were incubated for 24 h at 37°C under anaerobic conditions (AnaeroPack-Anaero System; Remel). For testing in mammalian cells, the following cell lines were used: Human cervical cancer cells HeLa (ATCC CCL-2), non-transformed mouse fibroblast cell line 3T3-L1 (ATCC CL-173), normal monkey kidney epithelial cell line Vero (ATCC CCL-81), and human B lymphoma cells Raji (ATCC CCL-86). […] Growth and viability of T. vaginalis and mammalian cells were determined with an ATP assay by adding the BacTiter-Glo Microbial Cell Viability Assay reagent (Promega) directly to the wells and measuring ATP-dependent luminescence in a microplate reader. […] Experiments were repeated at least three times, and the mean and SEM of the pGI50 values were calculated.

[10] = set-up: method as in PMID 30380863, PMID 36969170; settings: at therapeutic concentrations; cited from earlier work

Sequence of T. vaginalis Tv20S proteasome β5 subunit (A2DD57 entry or part of it): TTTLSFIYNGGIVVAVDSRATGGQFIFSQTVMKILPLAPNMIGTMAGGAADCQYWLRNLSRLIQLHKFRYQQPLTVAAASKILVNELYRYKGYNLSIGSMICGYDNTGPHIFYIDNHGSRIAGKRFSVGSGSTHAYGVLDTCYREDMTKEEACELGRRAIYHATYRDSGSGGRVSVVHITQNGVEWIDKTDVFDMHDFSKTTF
Sequence of T. vaginalis Tv20S proteasome β5 subunit (A2F716 entry or part of it): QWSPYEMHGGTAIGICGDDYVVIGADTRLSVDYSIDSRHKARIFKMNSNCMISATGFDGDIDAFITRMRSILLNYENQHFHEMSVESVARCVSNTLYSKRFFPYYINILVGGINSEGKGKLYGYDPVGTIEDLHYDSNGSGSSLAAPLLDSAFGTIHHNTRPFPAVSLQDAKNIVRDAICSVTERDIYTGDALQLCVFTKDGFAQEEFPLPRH
Sequence of T. vaginalis Tv20S proteasome β1 subunit (A2E7Z2 entry or part of it): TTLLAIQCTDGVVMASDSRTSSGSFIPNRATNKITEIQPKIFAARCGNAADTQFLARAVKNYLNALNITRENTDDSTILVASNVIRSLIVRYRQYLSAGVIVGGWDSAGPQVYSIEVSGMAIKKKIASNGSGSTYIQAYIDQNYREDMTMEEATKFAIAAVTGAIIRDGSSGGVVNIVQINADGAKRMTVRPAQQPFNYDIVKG

| Tv20S proteasome inhibition of β1 subunit (IC50) [2] | Tv20S proteasome inhibition of β2 subunit (IC50) [3] | IC50 [4] | Human c20S proteasome inhibition of β1 subunit (IC50) [5] | Human c20S proteasome inhibition of β2 subunit (IC50) [6] | IC50 [7] | Compound | SI (ratio of GI50 in HeLa cells over GI50 in T. vaginalis) [1] | β5 inactivated in T. vaginalis at lower concentrations compared to human cells [8] | abundance of ubiquitin-labeled proteins [9] | growth inhibitory activity against T. vaginalis (in words) ([1]; F1623) | growth inhibitory activity against human cells (in words) (human cell line HeLa) | Tv20S proteasome inhibition of β5 subunit (IC50) [4] | Human c20S proteasome inhibition of β5 subunit (IC50) [7] | effect on T-dependent antibody responses or number of circulating lymphocytes [10] |
| --- | --- | --- | --- | --- | --- | --- | --- | --- | --- | --- | --- | --- | --- | --- |
| Activation | No inhibition | 43.7 ± 12.3 nM | No inhibition | No inhibition | 4100 nM | CCCCCC(=O)NC(CC(=O)NC(CCCC)C(=O)NC(Cc1ccccc1)C(=O)C1(C)CO1)CC(=O)OC(C)(C)C (stereo not drawn) [compound 8] | 218.8 | 22 fold | accumulation of ubiquitinated proteins | – | – | – | – | – |
| Activation | No inhibition | 20.6 ± 5.39 nM | No inhibition | No inhibition | 379 ± 61.2 nM | COc1ccc(CC(NC(=O)C(C)NC(=O)OCc2ccccc2)C(=O)NC(Cc2ccccc2)C(=O)C2(C)CO2)cc1 (stereo not drawn) [compound 12] | 63.1 | 12 fold | accumulation of ubiquitinated proteins | – | – | – | – | – |
| Activation | No inhibition | 44.1 ± 6.71 nM | No inhibition | No inhibition | 39.4 ± 4.76 nM | COc1ccc(C[C@H](NC(=O)[C@H](C)NC(=O)C2=C(C)c3ccccc3C2)C(=O)N[C@@H](Cc2ccc(-c3ccccc3)cc2)C(=O)[C@@]2(C)CO2)cc1 [compound 20] | 16.2 | – | – | – | – | – | – | – |
| Activation | No inhibition | 60.5 ± 8.1 nM | No inhibition | No inhibition | 84.8 ± 20.2 nM | COc1ccc(C[C@H](NC(=O)[C@H](C)NC(=O)C2=C(C)c3ccccc3C2)C(=O)N[C@@H](Cc2ccccc2)C(=O)[C@]2(C)CO2)cc1 [compound 22] | 16.6 | – | – | – | – | – | – | – |
| – | – | – | – | – | – | COc1ccc([C@@H](O)[C@H](NC(=O)[C@H](C)NC(=O)CN2CCOCC2)C(=O)N[C@@H](CC2=CCCC2)C(=O)[C@@]2(C)CO2)cc1 [zetomipzomib, (2 S,3 R)-N-((S)-3-(Cyclopent-1-en-1-yl)-1-((R)-2-methyloxiran-2-yl)-1-oxopropan-2-yl)-3-hydroxy-3-(4-methoxyphenyl)-2-((S)-2-(2-morpholinoacetamido)propanamido)propenamide] | – | – | – | – | – | – | – | did not significantly affect |

| Compound | Tv20S proteasome inhibition of β1 subunit (IC50) [2] | Tv20S proteasome inhibition of β2 subunit (IC50) [3] | IC50 [4] | Human c20S proteasome inhibition of β1 subunit (IC50) [5] | Human c20S proteasome inhibition of β2 subunit (IC50) [6] | IC50 [7] | SI (ratio of GI50 in HeLa cells over GI50 in T. vaginalis) [1] | β5 inactivated in T. vaginalis at lower concentrations compared to human cells [8] | abundance of ubiquitin-labeled proteins [9] | growth inhibitory activity against T. vaginalis (in words) ([1]; F1623) | growth inhibitory activity against human cells (in words) (human cell line HeLa) | Tv20S proteasome inhibition of β5 subunit (IC50) [4] | Human c20S proteasome inhibition of β5 subunit (IC50) [7] | effect on T-dependent antibody responses or number of circulating lymphocytes [10] |
| --- | --- | --- | --- | --- | --- | --- | --- | --- | --- | --- | --- | --- | --- | --- |
| C=C(C)C(=O)[C@H](Cc1ccccc1)NC(=O)[C@H](Cc1ccc(OC)cc1)NC(=O)[C@H](C)NC(=O)C1=C(C)c2ccccc2C1 [compound 104] | did not inhibit; also recorded: No inhibition | did not inhibit; also recorded: No inhibition | – | no inhibitory activity; also recorded: No inhibition | no inhibitory activity; also recorded: No inhibition | – | 1.05 | – | – | only minimally inhibitory | only minimally inhibitory | did not inhibit; also recorded: No inhibition | no inhibitory activity; also recorded: No inhibition | – |
